Data: patent US20110021565A1, “PIPERIDINE DERIVATIVES AS NK3 ANTAGONISTS” (priority 2007, published 2011)
Where two headings read alike, the source gives them in different places.

Biological target: T1, recombinant human NK3 receptor (Homo sapiens, UniProt P29371)
T1 construct: expressed in transfected cells; host or cells: HEK293 cells, transient expression; membrane preparation
T1 sequence (P29371 1-465): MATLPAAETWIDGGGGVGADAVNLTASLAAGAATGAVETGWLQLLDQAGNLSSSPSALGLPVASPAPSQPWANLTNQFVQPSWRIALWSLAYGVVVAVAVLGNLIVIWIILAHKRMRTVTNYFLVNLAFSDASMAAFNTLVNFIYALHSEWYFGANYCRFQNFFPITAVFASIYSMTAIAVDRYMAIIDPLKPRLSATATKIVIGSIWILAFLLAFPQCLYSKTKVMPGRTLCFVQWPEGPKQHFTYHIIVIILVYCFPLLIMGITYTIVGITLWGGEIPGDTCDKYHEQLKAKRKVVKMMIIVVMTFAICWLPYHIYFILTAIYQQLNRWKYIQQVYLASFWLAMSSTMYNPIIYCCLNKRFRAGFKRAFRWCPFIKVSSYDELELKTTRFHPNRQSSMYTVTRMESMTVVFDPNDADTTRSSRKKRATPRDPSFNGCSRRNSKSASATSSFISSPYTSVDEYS
Assay: [3H]SR142801 competition binding assay
Method: [^3H]SR142801 Competition Binding Assay
hNK3 receptor binding experiment were performed using [^3H]SR142801 (Catalog No. TRK1035, specific activity: 74.0 Ci/mmol, Amersham, GE Healthcare UK limited, Buckinghamshire, UK) and membrane isolated from HEK293 cells transiently expressing recombinant human NK3 receptor. After thawing, the membrane homogenates were centrifuged at 48,000×g for 10 min at 4° C., the pellets were resuspended in the 50 mM Tris-HCl, 4 mM MnCl2, 1 μM phosphoramidon, 0.1% BSA binding buffer at pH 7.4 to a final assay concentration of 5 μg protein/well. For inhibition experiments, membranes were incubated with [^3H]SR142801 at a concentration equal to KD value of radioligand and 10 concentrations of the inhibitory compound (0.0003-10 μM) (in a total reaction volume of 500 μl) for 75 min at room temperature (RT). At the end of the incubation, membranes were filtered onto unitfilter (96-well white microplate with bonded GF/C filter preincubated 1 h in 0.3% PEI+0.3% BSA, Packard BioScience, Meriden, Conn.) with a Filtermate 196 harvester (Packard BioScience) and washed 4 times with ice-cold 50 mM Tris-HCl, pH 7.4 buffer. Nonspecific binding was measured in the presence of 10 μM SB222200 for both radioligands. The radioactivity on the filter was counted (5 min) on a Packard Top-count microplate scintillation counter with quenching correction after addition of 45 μl of microscint 40 (Canberra Packard S. A., Zurich, Switzerland) and shaking for 1 h. Inhibition curves were fitted according to the Hill equation: y=100/(1+(x/IC50)^nH), where nH=slope factor using Excel-fit 4 software ([…]). IC50 values were derived from the inhibition curve and the affinity constant (IQ values were calculated using the Cheng-Prussoff equation Ki=IC50/(1+[L]/KD) where [L] is the concentration of radioligand and KD is its dissociation constant at the receptor, derived from the saturation isotherm. All experiments were performed in duplicate and the mean±standard error (SEM) of the individual Ki values was calculated.

[1] = [3H]SR142801, membranes of HEK293 cells transiently expressing recombinant human NK3 receptor, read-out: hNK3 Ki
[2] = representative compounds, [3H]SR142801, HEK293 membranes, human NK3 receptor, read-out: Ki NK3 h

| Ki [1] | Ki [2] | SMILES |
| --- | --- | --- |
| 10.9 nM |  | CC(=O)N(C1CC1)C1CCN(CCC(C)(C(=O)N[C@@H](CO)c2ccc(Cl)cc2)c2ccc(Cl)c(Cl)c2)CC1 (single isomer, unassigned; diastereoisomer 1) [Example 142, 4-[4-(Acetyl-cyclopropyl-amino)-piperidin-1-yl]-N-[1-(4-chloro-phenyl)-2-hydroxy-ethyl]-2-(3,4-dichloro-phenyl)-2-methyl-butyramide (diastereoisomer 1)] |
| 10.1 nM |  | CC(=O)N(C1CC1)C1CCN(CCC(C)(C(=O)N[C@@H](CO)c2ccc(Cl)c(Cl)c2)c2ccc(Cl)c(Cl)c2)CC1 (single isomer, unassigned; diastereoisomer 1) [Example 144, 4-[4-(Acetyl-cyclopropyl-amino)-piperidin-1-yl]-2-(3,4-dichloro-phenyl)-N-[1-(3,4-dichloro-phenyl)-2-hydroxy-ethyl]-2-methyl-butyramide (diastereoisomer 1)] |
| 0.7 nM | 0.7 nM | COCCN(C(C)=O)C1CCN(CCC(C)(C(=O)N[C@@H](CO)c2ccc(F)cc2)c2ccc(Cl)c(Cl)c2)CC1 (single isomer, unassigned; diastereoisomer 1) [Example 146, 4-{4-[Acetyl-(2-methoxy-ethyl)-amino]-piperidin-1-yl}-2-(3,4-dichloro-phenyl)-N-[1-(4-fluoro-phenyl)-2-hydroxy-ethyl]-2-methyl-butyramide (diastereoisomer 1)] |
| 170 nM |  | CC(=O)NC1CCN(CCC(C)(C(=O)N[C@@H](CO)c2ccc(F)cc2)c2ccc(Cl)c(Cl)c2)CC1 (single isomer, unassigned; diastereoisomer 1) [Example 154, 4-(4-Acetylamino-piperidin-1-yl)-2-(3,4-dichloro-phenyl)-N-[1-(4-fluoro-phenyl)-2-hydroxy-ethyl]-2-methyl-butyramide (diastereoisomer 1)] |
| 50.5 nM |  | CC(=O)NC1CCN(CCC(C)(C(=O)N[C@@H](CO)c2ccc(Cl)cc2)c2ccc(Cl)c(Cl)c2)CC1 (single isomer, unassigned; diastereoisomer 1) [Example 156, 4-(4-Acetylamino-piperidin-1-yl)-N-[1-(4-chloro-phenyl)-2-hydroxy-ethyl]-2-(3,4-dichloro-phenyl)-2-methyl-butyramide (diastereoisomer 1)] |
| 34.6 nM |  | CC(=O)NC1CCN(CCC(C)(C(=O)N[C@@H](CO)c2ccc(Cl)c(Cl)c2)c2ccc(Cl)c(Cl)c2)CC1 (single isomer, unassigned; diastereoisomer 1) [Example 158] |
| 52.1 nM |  | CN(C1CCN(CCC(C)(C(=O)N[C@H](CO)c2ccc(Cl)c(Cl)c2)c2ccc(Cl)c(Cl)c2)CC1)S(C)(=O)=O (single isomer, unassigned; diastereoisomer 2) [Example 50, 2-(3,4-Dichloro-phenyl)-N-[1-(3,4-dichloro-phenyl)-2-hydroxy-ethyl]-4-[4-(methanesulfonyl-methyl-amino)-piperidin-1-yl]-2-methyl-butyramide; diastereoisomer 2] |
| 13.3 nM |  | CCN(C1CCN(CCC(C)(C(=O)N[C@H](CO)c2ccc(Cl)c(Cl)c2)c2ccc(Cl)c(Cl)c2)CC1)S(C)(=O)=O (single isomer, unassigned; diastereoisomer 2) [Example 80, 2-(3,4-Dichloro-phenyl)-N-[1-(3,4-dichloro-phenyl)-2-hydroxy-ethyl]-4-[4-(ethyl-methanesulfonyl-amino)-piperidin-1-yl]-2-methyl-butyramide; diastereoisomer 2] |
| 49.9 nM |  | CC(CCN1CCC(N2CCCC2=O)CC1)(C(=O)N[C@H](CO)c1ccc(Cl)c(Cl)c1)c1ccc(Cl)c(Cl)c1 (single isomer, unassigned; diastereoisomer 2) [Example 98, 2-(3,4-Dichloro-phenyl)-N-[1-(3,4-dichloro-phenyl)-2-hydroxy-ethyl]-2-methyl-4-[4-(2-oxo-pyrrolidin-1-yl)-piperidin-1-yl]-butyramide; diastereoisomer 2] |
| 110 nM |  | CC(=O)N(C)C1CCN(CCC(C)(C(=O)N[C@H](CO)c2ccc(Cl)c(Cl)c2)c2ccc(Cl)c(Cl)c2)CC1 (single isomer, unassigned; diastereoisomer 2) [Example 110, 4-[4-(Acetyl-methyl-amino)-piperidin-1-yl]-2-(3,4-dichloro-phenyl)-N-[1-(3,4-dichloro-phenyl)-2-hydroxy-ethyl]-2-methyl-butyramide; diastereoisomer 2] |
| 141 nM |  | CC(=O)N(C)C1CCN(CCC(C)(C(=O)N[C@H](CO)c2ccc(F)cc2)c2ccc(Cl)c(Cl)c2)CC1 (single isomer, unassigned; diastereoisomer 2) [Example 139, 4-[4-(Acetyl-methyl-amino)-piperidin-1-yl]-2-(3,4-dichloro-phenyl)-N-[1-(4-fluoro-phenyl)-2-hydroxy-ethyl]-2-methyl-butyramide (diastereoisomer 2)] |
| 165 nM |  | CC(=O)N(C1CC1)C1CCN(CCC(C)(C(=O)N[C@H](CO)c2ccc(F)cc2)c2ccc(Cl)c(Cl)c2)CC1 (single isomer, unassigned; diastereoisomer 2) [Example 141, 4-[4-(Acetyl-cyclopropyl-amino)-piperidin-1-yl]-2-(3,4-dichloro-phenyl)-N-[1-(4-fluoro-phenyl)-2-hydroxy-ethyl]-2-methyl-butyramide (diastereoisomer 2)] |
| 87.7 nM |  | CC(=O)N(C1CC1)C1CCN(CCC(C)(C(=O)N[C@@H](CO)c2ccc(Cl)cc2)c2ccc(Cl)c(Cl)c2)CC1 (single isomer, unassigned; diastereoisomer 2) [Example 143, 4-[4-(Acetyl-cyclopropyl-amino)-piperidin-1-yl]-N-[1-(4-chloro-phenyl)-2-hydroxy-ethyl]-2-(3,4-dichloro-phenyl)-2-methyl-butyramide (diastereoisomer 2)] |
| 50.2 nM |  | CC(=O)N(C1CC1)C1CCN(CCC(C)(C(=O)N[C@H](CO)c2ccc(Cl)c(Cl)c2)c2ccc(Cl)c(Cl)c2)CC1 (single isomer, unassigned; diastereoisomer 2) [Example 145, 4-[4-(Acetyl-cyclopropyl-amino)-piperidin-1-yl]-2-(3,4-dichloro-phenyl)-N-[1-(3,4-dichloro-phenyl)-2-hydroxy-ethyl]-2-methyl-butyramide (diastereoisomer 2)] |
| 13.8 nM |  | CC(=O)NC1CCN(CCC(C)(C(=O)N[C@H](CO)c2ccc(F)cc2)c2ccc(Cl)c(Cl)c2)CC1 (single isomer, unassigned; diastereoisomer 2) [Example 155, 4-(4-Acetylamino-piperidin-1-yl)-2-(3,4-dichloro-phenyl)-N-[1-(4-fluoro-phenyl)-2-hydroxy-ethyl]-2-methyl-butyramide (diastereoisomer 2)] |
| 773 nM |  | CC(=O)NC1CCN(CCC(C)(C(=O)N[C@@H](CO)c2ccc(Cl)cc2)c2ccc(Cl)c(Cl)c2)CC1 (single isomer, unassigned; diastereoisomer 2) [Example 157, 4-(4-Acetylamino-piperidin-1-yl)-N-[1-(4-chloro-phenyl)-2-hydroxy-ethyl]-2-(3,4-dichloro-phenyl)-2-methyl-butyramide (diastereoisomer 2)] |
| 258 nM |  | CC(=O)NC1CCN(CCC(C)(C(=O)N[C@H](CO)c2ccc(Cl)c(Cl)c2)c2ccc(Cl)c(Cl)c2)CC1 (single isomer, unassigned; diastereoisomer 2) [Example 159] |
| 0.5 nM | 0.5 nM | CCCN(C(C)=O)C1CCN(CCC(C)(C(=O)N[C@@H](CO)c2ccc(F)cc2)c2ccc(Cl)c(Cl)c2)CC1 (single isomer, unassigned; epimer 1) [Example 162] |
| 2.2 nM | 2.2 nM | CCN(C(C)=O)C1CCN(CCC(C)(C(=O)N[C@@H](CO)c2ccc(F)cc2)c2ccc(Cl)c(Cl)c2)CC1 (single isomer, unassigned; epimer 1) [Example 166] |
| 5.6 nM | 5.6 nM | CCCN(C(C)=O)C1CCN(CCC(C)(C(=O)N[C@@H](CO)c2ccc(F)cc2)c2ccc(Cl)c(Cl)c2)CC1 (single isomer, unassigned; epimer 2) [Example 163] |
